Values of other authors as cited in US7850723B1, “Method and apparatus for patient temperature control employing titration of therapy using EEG signals” (Innercool Therapies, Inc., priority 2005, dated 2010).

Assays:
[1] = in vivo
[2] = system: clots; settings: clots treated with plasminogen (2 mg) and SK (100 IU) in 15 ml PBS; clot temperature raised from 24° C. to 37° C.
[3] = system: clots; settings: clots treated with UK at 4° C. and 28° C.; heating to 28° C.

Compound: CCOC(=O)C1(c2ccccc2)CCN(C)CC1 [Meperidine]
- decrease of shivering threshold relative to vasoconstriction threshold [1]: twice as much

Compound: streptokinase [SK]
- fibrinolytic activity [2]: heating enhanced the fibrinolytic activity

Compound: urokinase [UK]
- fibrinolytic activity (conversion of plasminogen to plasmin) [3]: complete conversion of all plasminogen to plasmin
